IC50 data for 21 molecules are collected here from patent US12668594B2, “TYK2 inhibitors and uses thereof” (Sudo Biosciences Limited, priority 2020, dated 2026).

Broadly, the IC50 is the concentration needed to halve the response being measured.

The target of assay [1] is T1, TYK2 (Homo sapiens, UniProt P29597). Nature of the assay: HEK-Blue IFNα/β reporter assay (SEAP) for TYK2 pseudokinase inhibition. The class given is cell-based. To be noted: HEK-Blue IFNα/β cells, 1 ng/mL human recombinant IFNα. In outline: (§1)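 HEK-Blue cells carrying cytokine receptor and STAT3 or STAT1 SEAP reporter, pretreated 60 min with compound, then stimulated with 10 ng/mL IL-23 (22–24 h) or 1 ng/mL IFNα (16–18 h). SEAP read with QUANTI-Blue; IC50 by non-linear regression versus no-inhibitor and unstimulated controls.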
T1 sequence (P29597 whole entry): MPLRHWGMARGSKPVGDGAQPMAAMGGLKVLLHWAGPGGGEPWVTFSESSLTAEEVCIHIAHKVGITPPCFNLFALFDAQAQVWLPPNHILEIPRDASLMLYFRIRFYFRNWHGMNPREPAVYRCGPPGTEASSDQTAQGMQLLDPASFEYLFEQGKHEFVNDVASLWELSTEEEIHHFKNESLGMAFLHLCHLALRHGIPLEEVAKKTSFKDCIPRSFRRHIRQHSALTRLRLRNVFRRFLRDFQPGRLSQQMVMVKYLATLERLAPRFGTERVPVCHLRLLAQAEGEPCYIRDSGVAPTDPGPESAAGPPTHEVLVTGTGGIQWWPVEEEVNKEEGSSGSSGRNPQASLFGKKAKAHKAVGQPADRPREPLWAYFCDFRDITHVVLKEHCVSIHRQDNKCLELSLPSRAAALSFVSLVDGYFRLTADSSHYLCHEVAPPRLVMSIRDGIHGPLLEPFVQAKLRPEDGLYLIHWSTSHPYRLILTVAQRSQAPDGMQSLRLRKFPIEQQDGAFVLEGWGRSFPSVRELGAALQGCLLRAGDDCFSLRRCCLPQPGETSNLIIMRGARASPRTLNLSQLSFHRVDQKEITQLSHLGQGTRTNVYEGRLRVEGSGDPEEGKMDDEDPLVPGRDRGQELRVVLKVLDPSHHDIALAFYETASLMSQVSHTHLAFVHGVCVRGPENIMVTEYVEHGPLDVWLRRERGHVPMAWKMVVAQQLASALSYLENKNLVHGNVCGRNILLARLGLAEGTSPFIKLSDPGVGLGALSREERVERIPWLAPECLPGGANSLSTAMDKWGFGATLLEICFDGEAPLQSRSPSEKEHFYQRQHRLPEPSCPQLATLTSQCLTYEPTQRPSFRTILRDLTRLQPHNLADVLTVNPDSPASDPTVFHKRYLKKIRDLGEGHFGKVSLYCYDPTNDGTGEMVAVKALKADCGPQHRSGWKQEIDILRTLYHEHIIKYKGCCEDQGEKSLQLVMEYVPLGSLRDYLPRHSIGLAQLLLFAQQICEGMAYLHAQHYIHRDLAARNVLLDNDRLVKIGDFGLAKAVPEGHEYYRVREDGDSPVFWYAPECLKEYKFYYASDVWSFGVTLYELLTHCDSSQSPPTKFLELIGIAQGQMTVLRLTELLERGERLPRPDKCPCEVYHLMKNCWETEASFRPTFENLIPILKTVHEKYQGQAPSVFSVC
A general note: A reporter such as luciferase makes a cellular process visible.

Assay [2] deals with T1, TYK2. Kind of assay: HEK-Blue IL-23 reporter assay (SEAP) for TYK2 pseudokinase inhibition. The class given is cell-based. The arrangement: HEK-Blue™ IL-23 and IFNα/β cells with a stably-integrated cytokine receptor and STAT3 or STAT1; host or cells: HEK-Blue IL-23 / HEK-Blue IFNα/β cells (HEK293 background). To be noted: HEK-Blue IL-23 cells, 10 ng/mL human recombinant IL-23, SEAP reporter; read-out: IL23 IC50. The procedure, abridged: as §1

`COc1cc(-n2[nH]c(=O)c3cnc(NC(=O)C4CC4)cc32)ccc1C#N` [Compound I-82, N-(1-(4-cyano-3-methoxyphenyl)-3-oxo-2,3-dihydro-1H-pyrazolo[4,3-c]pyridin-6-yl)cyclopropanecarboxamide]: the values for the IC50 at TYK2 [1] and at TYK2 [2] were 10 to 30 µM and less than 10 µM, respectively.

In the case of `COc1cc(-n2[nH]c(=O)c3cnc(Nc4cc(C)nc(C)n4)cc32)ccn1` [Compound I-83, 6-((2,6-dimethylpyrimidin-4-yl)amino)-1-(2-methoxypyridin-4-yl)-1,2-dihydro-3H-pyrazolo[4,3-c]pyridin-3-one], the IC50 at TYK2 [1] and on TYK2 [2] was less than 10 µM in each case.

Regarding `COc1cc(-n2[nH]c(=O)c3cnc(Nc4ccc(F)cn4)cc32)ccn1` [Compound I-84, 6-((5-fluoropyridin-2-yl)amino)-1-(2-methoxypyridin-4-yl)-1,2-dihydro-3H-pyrazolo[4,3-c]pyridin-3-one], the half-inhibitory concentration (IC50) on TYK2 [1] and on TYK2 [2] was less than 10 µM in each case.

Turning to `Cc1cc(Nc2cc3c(cn2)c(=O)[nH]n3-c2ccc(Cl)c(Cl)c2)nc(C)n1` [Compound I-85, 1-(3,4-dichlorophenyl)-6-((2,6-dimethylpyrimidin-4-yl)amino)-1,2-dihydro-3H-pyrazolo[4,3-c]pyridin-3-one], the IC50 on TYK2 [1] and on TYK2 [2] was greater than 90 µM throughout.

As to `O=c1[nH]n(-c2ccc(Cl)c(Cl)c2)c2cc(Nc3ccc(F)cn3)ncc12` [Compound I-86, 1-(3,4-dichlorophenyl)-6-((5-fluoropyridin-2-yl)amino)-1,2-dihydro-3H-pyrazolo[4,3-c]pyridin-3-one], the IC50 at TYK2 [1] and at TYK2 [2] was greater than 90 µM throughout.

Turning to `Cc1cc(Nc2cc3c(cn2)c(=O)[nH]n3-c2ccc(C#N)c(Cl)c2)nc(C)n1` [Compound I-87, 2-chloro-4-(6-((2,6-dimethylpyrimidin-4-yl)amino)-3-oxo-2,3-dihydro-1H-pyrazolo[4,3-c]pyridin-1-yl)benzonitrile], the IC50 on TYK2 [1] is greater than 90 µM; at TYK2 [2], less than 10 µM.

Take `N#Cc1ccc(-n2[nH]c(=O)c3cnc(NC(=O)C4CC4)cc32)cc1Cl` [Compound I-89, N-(1-(3-chloro-4-cyanophenyl)-3-oxo-2,3-dihydro-1H-pyrazolo[4,3-c]pyridin-6-yl)cyclopropanecarboxamide]: the IC50 on TYK2 [1] and at TYK2 [2] was less than 10 µM in each case.

As for `Cc1cc(Nc2cc3c(cn2)c(=O)[nH]n3-c2ccc(C#N)c(F)c2)nc(C)n1` [Compound I-90, 4-(6-((2,6-dimethylpyrimidin-4-yl)amino)-3-oxo-2,3-dihydro-1H-pyrazolo[4,3-c]pyridin-1-yl)-2-fluorobenzonitrile], the 50% inhibitory concentration (IC50) at TYK2 [1] and on TYK2 [2] was less than 10 µM in each case.

On to `Cc1cc(Nc2cc3c(cn2)c(=O)[nH]n3-c2ccc(C#N)c(C(F)(F)F)c2)nc(C)n1` [Compound I-91, 4-(6-((2,6-dimethylpyrimidin-4-yl)amino)-3-oxo-2,3-dihydro-1H-pyrazolo[4,3-c]pyridin-1-yl)-2-(trifluoromethyl)benzonitrile], for which the IC50 on TYK2 [1] and on TYK2 [2] was less than 10 µM throughout.

With `N#Cc1ccc(-n2[nH]c(=O)c3cnc(Nc4ccc(F)cn4)cc32)cc1C(F)(F)F` [Compound I-92, 4-(6-((5-fluoropyridin-2-yl)amino)-3-oxo-2,3-dihydro-1H-pyrazolo[4,3-c]pyridin-1-yl)-2-(trifluoromethyl)benzonitrile], the IC50 on TYK2 [1] and on TYK2 [2] was less than 10 µM in each case.

In the case of `N#Cc1ccc(-n2[nH]c(=O)c3cnc(NC(=O)C4CC4)cc32)cc1C(F)(F)F` [Compound I-93, N-(1-(4-cyano-3-(trifluoromethyl)phenyl)-3-oxo-2,3-dihydro-1H-pyrazolo[4,3-c]pyridin-6-yl)cyclopropanecarboxamide], the half-maximal inhibitory concentration (IC50) on TYK2 [1] and at TYK2 [2] was less than 10 µM in each case.

Take `Cc1cc(Nc2cc3c(cn2)c(=O)[nH]n3-c2cc(Cl)cc(Cl)c2)nc(C)n1` [Compound I-96, 1-(3,5-dichlorophenyl)-6-((2,6-dimethylpyrimidin-4-yl)amino)-1,2-dihydro-3H-pyrazolo[4,3-c]pyridin-3-one]: the IC50 was greater than 90 µM on TYK2 [1] and less than 10 µM at TYK2 [2].

For the molecule `O=C(Nc1cc2c(cn1)c(=O)[nH]n2-c1cc(Cl)cc(Cl)c1)C1CC1` [Compound I-98, N-(1-(3,5-dichlorophenyl)-3-oxo-2,3-dihydro-1H-pyrazolo[4,3-c]pyridin-6-yl)cyclopropanecarboxamide], the IC50 was greater than 90 µM at TYK2 [1] and less than 10 µM at TYK2 [2].

Consider `COc1c(F)cccc1-n1[nH]c(=O)c2cnc(Nc3cc(C)nc(C)n3)cc21` [Compound I-99, 6-((2,6-dimethylpyrimidin-4-yl)amino)-1-(3-fluoro-2-methoxyphenyl)-1,2-dihydro-3H-pyrazolo[4,3-c]pyridin-3-one], for which the figures for the IC50 at TYK2 [1] and on TYK2 [2] were 10 to 30 µM and less than 10 µM, respectively.

Consider `COc1c(F)cccc1-n1[nH]c(=O)c2cnc(Nc3ccc(F)cn3)cc21` [Compound I-100, 1-(3-fluoro-2-methoxyphenyl)-6-((5-fluoropyridin-2-yl)amino)-1,2-dihydro-3H-pyrazolo[4,3-c]pyridin-3-one], for which the IC50 on TYK2 [1] and at TYK2 [2] was greater than 90 µM in each case.

As for `COc1c(Cl)cccc1-n1[nH]c(=O)c2cnc(Nc3cc(C)nc(C)n3)cc21` [Compound I-101, 1-(3-chloro-2-methoxyphenyl)-6-((2,6-dimethylpyrimidin-4-yl)amino)-1,2-dihydro-3H-pyrazolo[4,3-c]pyridin-3-one], the IC50 on TYK2 [1] and on TYK2 [2] was greater than 90 µM each time.

On to `COc1c(Cl)cccc1-n1[nH]c(=O)c2cnc(Nc3ccc(F)cn3)cc21` [Compound I-102, 1-(3-chloro-2-methoxyphenyl)-6-((5-fluoropyridin-2-yl)amino)-1,2-dihydro-3H-pyrazolo[4,3-c]pyridin-3-one], for which the values for the IC50 on TYK2 [1] and at TYK2 [2] were greater than 90 µM and 10 to 30 µM, respectively.

As for `COc1c(-n2[nH]c(=O)c3cnc(Nc4cc(C)nc(C)n4)cc32)cccc1C(F)(F)F` [Compound I-103, 6-((2,6-dimethylpyrimidin-4-yl)amino)-1-(2-methoxy-3-(trifluoromethyl)phenyl)-1,2-dihydro-3H-pyrazolo[4,3-c]pyridin-3-one], the IC50 on TYK2 [1] and at TYK2 [2] was greater than 90 µM each time.

Regarding `COc1c(-n2[nH]c(=O)c3cnc(Nc4ccc(F)cn4)cc32)cccc1C(F)(F)F` [Compound I-104, 6-((5-fluoropyridin-2-yl)amino)-1-(2-methoxy-3-(trifluoromethyl)phenyl)-1,2-dihydro-3H-pyrazolo[4,3-c]pyridin-3-one], the IC50 at TYK2 [1] and on TYK2 [2] was greater than 90 µM throughout.

On to `Cc1cc(Nc2cc3c(cn2)c(=O)[nH]n3-c2ccccc2C)nc(C)n1` [Compound I-105, 6-((2,6-dimethylpyrimidin-4-yl)amino)-1-(o-tolyl)-1,2-dihydro-3H-pyrazolo[4,3-c]pyridin-3-one], for which the IC50 at TYK2 [1] and on TYK2 [2] was less than 10 µM each time.

Regarding `Cc1ccccc1-n1[nH]c(=O)c2cnc(Nc3ccc(F)cn3)cc21` [Compound I-106, 6-((5-fluoropyridin-2-yl)amino)-1-(0-tolyl)-1,2-dihydro-3H-pyrazolo[4,3-c]pyridin-3-one], the 50% inhibitory concentration (IC50) at TYK2 [1] is 30 to 90 µM; at TYK2 [2], less than 10 µM.
